In the supplement of paper PMC10627819:

Tests used:
Assay in all cases: Bliss interaction score (quartile over a dose matrix) (fitness difference); higher = more antagonism (negative = synergy)
[1] = test system: S. aureus DSM 20231
How it was run: (§1)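 Fitness was defined as normalised growth: OD595 at the start of stationary phase divided by the plate's robust no-drug mean and capped at 1. Single-drug fitness was inferred from combination measurements. The Bliss score is observed fitness minus the product of the single-drug values, summarised by quartiles across technical, biological and donor/recipient replicates.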

[2] = test system: S. pneumoniae D39V
How it was run: as §1

[3] = test system: S. aureus Newman
How it was run: as §1

[4] = test system: B. subtilis 168
How it was run: as §1
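Further: first quartile when negative (synergy) and third quartile when positive (antagonism).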

SMILES	Bliss interaction score [1]	Bliss interaction score [2]	Bliss interaction score [3]	Bliss interaction score [4]
CC[C@H]1OC(=O)[C@H](C)[C@@H](O[C@H]2C[C@@](C)(OC)[C@@H](O)[C@H](C)O2)[C@H](C)[C@@H](O[C@@H]2O[C@H](C)C[C@H](N(C)C)[C@H]2O)[C@](C)(O)C[C@@H](C)C(=O)[C@H](C)[C@@H](O)[C@]1(C)O [Erythromycin] + CN[C@H](CC(C)C)C(=O)N[C@H]1C(=O)N[C@@H](CC(N)=O)C(=O)N[C@H]2C(=O)N[C@H]3C(=O)N[C@H](C(=O)N[C@H](C(=O)O)c4cc(O)cc(O)c4-c4cc3ccc4O)[C@H](O[C@H]3C[C@](C)(N)[C@@H](O)[C@H](C)O3)c3ccc(c(Cl)c3)Oc3cc2cc(c3O[C@@H]2O[C@H](CO)[C@@H](O)[C@H](O)[C@H]2O[C@H]2C[C@](C)(NCc3ccc(-c4ccc(Cl)cc4)cc3)[C@@H](O)[C@H](C)O2)Oc2ccc(cc2Cl)[C@H]1O [Oritavancin]	-0.023	0.046	0.0605	0.0299
CC[C@H]1OC(=O)[C@H](C)[C@@H](O[C@H]2C[C@@](C)(OC)[C@@H](O)[C@H](C)O2)[C@H](C)[C@@H](O[C@@H]2O[C@H](C)C[C@H](N(C)C)[C@H]2O)[C@](C)(O)C[C@@H](C)C(=O)[C@H](C)[C@@H](O)[C@]1(C)O [Erythromycin] + CO[C@@H]1[C@@H](OC(N)=O)[C@@H](O)[C@H](Oc2ccc3c(O)c(NC(=O)c4ccc(O)c(CC=C(C)C)c4)c(=O)oc3c2C)OC1(C)C [Novobiocin]	-0.0443	-0.114	0.0699	-0.0636
CC[C@H]1OC(=O)[C@H](C)[C@@H](O[C@H]2C[C@@](C)(OC)[C@@H](O)[C@H](C)O2)[C@H](C)[C@@H](O[C@@H]2O[C@H](C)C[C@H](N(C)C)[C@H]2O)[C@](C)(O)C[C@@H](C)C(=O)[C@H](C)[C@@H](O)[C@]1(C)O [Erythromycin] + CO[C@@]12[C@H](COC(N)=O)C3=C(C(=O)C(C)=C(N)C3=O)N1C[C@@H]1N[C@@H]12 [MitomycinC]	-0.048	-0.0897	0.0538	0.0799
CC[C@H]1OC(=O)[C@H](C)[C@@H](O[C@H]2C[C@@](C)(OC)[C@@H](O)[C@H](C)O2)[C@H](C)[C@@H](O[C@@H]2O[C@H](C)C[C@H](N(C)C)[C@H]2O)[C@](C)(O)C[C@@H](C)C(=O)[C@H](C)[C@@H](O)[C@]1(C)O [Erythromycin] + CO[C@H]1/C=C/O[C@@]2(C)Oc3c(C)c(O)c4c(O)c(c(/C=N/N5CCN(C)CC5)c(O)c4c3C2=O)NC(=O)/C(C)=C\C=C\[C@H](C)[C@H](O)[C@@H](C)[C@@H](O)[C@@H](C)[C@H](OC(C)=O)[C@@H]1C [Rifampicin]	0.0363	0.0763	0.0582	0.116
CC[C@H]1OC(=O)[C@H](C)[C@@H](O[C@H]2C[C@@](C)(OC)[C@@H](O)[C@H](C)O2)[C@H](C)[C@@H](O[C@@H]2O[C@H](C)C[C@H](N(C)C)[C@H]2O)[C@](C)(O)C[C@@H](C)C(=O)[C@H](C)[C@@H](O)[C@]1(C)O [Erythromycin] + COc1c(N2C[C@@H]3CCCN[C@@H]3C2)c(F)cc2c(=O)c(C(=O)O)cn(C3CC3)c12 [Moxifloxacin]	0.0532	0.101	0.0486	0.0269
CC[C@H]1OC(=O)[C@H](C)[C@@H](O[C@H]2C[C@@](C)(OC)[C@@H](O)[C@H](C)O2)[C@H](C)[C@@H](O[C@@H]2O[C@H](C)C[C@H](N(C)C)[C@H]2O)[C@](C)(O)C[C@@H](C)C(=O)[C@H](C)[C@@H](O)[C@]1(C)O [Erythromycin] + COc1cc(Cc2cnc(N)nc2N)cc(OC)c1OC [Trimethoprim]	0.0179	-0.0464	0.0715	-0.155
CC[C@H]1OC(=O)[C@H](C)[C@@H](O[C@H]2C[C@@](C)(OC)[C@@H](O)[C@H](C)O2)[C@H](C)[C@@H](O[C@@H]2O[C@H](C)C[C@H](N(C)C)[C@H]2O)[C@](C)(O)C[C@@H](C)C(=O)[C@H](C)[C@@H](O)[C@]1(C)O [Erythromycin] + COc1ccc(C[C@H](N)C(=O)N[C@H]2[C@@H](O)[C@H](n3cnc4c(N(C)C)ncnc43)O[C@@H]2CO)cc1 [Puromycin]	-0.0389	-0.0449	-0.0378	-0.0531
CC[C@H]1OC(=O)[C@H](C)[C@@H](O[C@H]2C[C@@](C)(OC)[C@@H](O)[C@H](C)O2)[C@H](C)[C@@H](O[C@@H]2O[C@H](C)C[C@H](N(C)C)[C@H]2O)[C@](C)(O)C[C@@H](C)C(=O)[C@H](C)[C@@H](O)[C@]1(C)O [Erythromycin] + C[C@@H]1O[C@@H]1P(=O)(O)O [Fosfomycin]	-0.0365	0.0627	-0.073	0.116
CC[C@H]1OC(=O)[C@H](C)[C@@H](O[C@H]2C[C@@](C)(OC)[C@@H](O)[C@H](C)O2)[C@H](C)[C@@H](O[C@@H]2O[C@H](C)C[C@H](N(C)C)[C@H]2O)[C@](C)(O)C[C@@H](C)C(=O)[C@H](C)[C@@H](O)[C@]1(C)O [Erythromycin] + C[C@@H](O)[C@H]1C(=O)N2C(C(=O)O)=C(SCCNC=N)C[C@H]12 [Imipenem]	0.0185	-0.0344	0.0221	0.078
CC[C@H]1OC(=O)[C@H](C)[C@@H](O[C@H]2C[C@@](C)(OC)[C@@H](O)[C@H](C)O2)[C@H](C)[C@@H](O[C@@H]2O[C@H](C)C[C@H](N(C)C)[C@H]2O)[C@](C)(O)C[C@@H](C)C(=O)[C@H](C)[C@@H](O)[C@]1(C)O [Erythromycin] + C[C@H]1COc2c(N3CCN(C)CC3)c(F)cc3c(=O)c(C(=O)O)cn1c23 [Levofloxacin]	0.0327	0.0979	0.0478	0.041
CC[C@H]1OC(=O)[C@H](C)[C@@H](O[C@H]2C[C@@](C)(OC)[C@@H](O)[C@H](C)O2)[C@H](C)[C@@H](O[C@@H]2O[C@H](C)C[C@H](N(C)C)[C@H]2O)[C@](C)(O)C[C@@H](C)C(=O)[C@H](C)[C@@H](O)[C@]1(C)O [Erythromycin] + C[n+]1ccc(-c2cc[n+](C)cc2)cc1 [Paraquat]	0.0299	0.0496	0.0479	-0.0399
CC[C@H]1OC(=O)[C@H](C)[C@@H](O[C@H]2C[C@@](C)(OC)[C@@H](O)[C@H](C)O2)[C@H](C)[C@@H](O[C@@H]2O[C@H](C)C[C@H](N(C)C)[C@H]2O)[C@](C)(O)C[C@@H](C)C(=O)[C@H](C)[C@@H](O)[C@]1(C)O [Erythromycin] + Cc1cc(NS(=O)(=O)c2ccc(N)cc2)no1 [Sulfamethoxazol]	-0.0354	-0.0479	-0.0442	-0.0511
CC[C@H]1OC(=O)[C@H](C)[C@@H](O[C@H]2C[C@@](C)(OC)[C@@H](O)[C@H](C)O2)[C@H](C)[C@@H](O[C@@H]2O[C@H](C)C[C@H](N(C)C)[C@H]2O)[C@](C)(O)C[C@@H](C)C(=O)[C@H](C)[C@@H](O)[C@]1(C)O [Erythromycin] + Cc1ncc([N+](=O)[O-])n1CCO [Metronidazole]	-0.0288	0.0719	-0.0396	-0.0335
CC[C@H]1OC(=O)[C@H](C)[C@@H](O[C@H]2C[C@@](C)(OC)[C@@H](O)[C@H](C)O2)[C@H](C)[C@@H](O[C@@H]2O[C@H](C)C[C@H](N(C)C)[C@H]2O)[C@](C)(O)C[C@@H](C)C(=O)[C@H](C)[C@@H](O)[C@]1(C)O [Erythromycin] + Cc1onc(-c2ccccc2)c1C(=O)N[C@@H]1C(=O)N2[C@@H]1SC(C)(C)[C@@H]2C(=O)O [Oxacillin]	0.0345	0.0509	0.0255	-0.0427
CC[C@H]1OC(=O)[C@H](C)[C@@H](O[C@H]2C[C@@](C)(OC)[C@@H](O)[C@H](C)O2)[C@H](C)[C@@H](O[C@@H]2O[C@H](C)C[C@H](N(C)C)[C@H]2O)[C@](C)(O)C[C@@H](C)C(=O)[C@H](C)[C@@H](O)[C@]1(C)O [Erythromycin] + Clc1ccc(COC(Cn2ccnc2)c2ccc(Cl)cc2Cl)c(Cl)c1 [Miconazole]	0.0299	0.114	0.0457	-0.0519
CC[C@H]1OC(=O)[C@H](C)[C@@H](O[C@H]2C[C@@](C)(OC)[C@@H](O)[C@H](C)O2)[C@H](C)[C@@H](O[C@@H]2O[C@H](C)C[C@H](N(C)C)[C@H]2O)[C@](C)(O)C[C@@H](C)C(=O)[C@H](C)[C@@H](O)[C@]1(C)O [Erythromycin] + Cn1nnc(-c2ccc(-c3ccc(N4C[C@H](CO)OC4=O)cc3F)cn2)n1 [Tedizolid]	-0.0541	0.0787	-0.07	-0.0574
CC[C@H]1OC(=O)[C@H](C)[C@@H](O[C@H]2C[C@@](C)(OC)[C@@H](O)[C@H](C)O2)[C@H](C)[C@@H](O[C@@H]2O[C@H](C)C[C@H](N(C)C)[C@H]2O)[C@](C)(O)C[C@@H](C)C(=O)[C@H](C)[C@@H](O)[C@]1(C)O [Erythromycin] + O=C1CN(/N=C/c2ccc([N+](=O)[O-])o2)C(=O)N1 [Nitrofurantoin]	-0.0518	-0.197	-0.0513	-0.0393
CC[C@H]1OC(=O)[C@H](C)[C@@H](O[C@H]2C[C@@](C)(OC)[C@@H](O)[C@H](C)O2)[C@H](C)[C@@H](O[C@@H]2O[C@H](C)C[C@H](N(C)C)[C@H]2O)[C@](C)(O)C[C@@H](C)C(=O)[C@H](C)[C@@H](O)[C@]1(C)O [Erythromycin] + Oc1cc(Cl)ccc1Oc1ccc(Cl)cc1Cl [Triclosan]	-0.0265	-0.0874	0.0312	-0.0438
CC(=O)NC[C@H]1CN(c2ccc(N3CCOCC3)c(F)c2)C(=O)O1 [Linezolid] + CC1(C)S[C@@H]2[C@H](NC(=O)Cc3ccccc3)C(=O)N2[C@H]1C(=O)O [PenicillinG]	0.0632	0.0505	-0.0481	-0.0653
CC(=O)NC[C@H]1CN(c2ccc(N3CCOCC3)c(F)c2)C(=O)O1 [Linezolid] + CC[C@H]1OC(=O)[C@H](C)C(=O)[C@H](C)[C@@H](O[C@@H]2O[C@H](C)C[C@H](N(C)C)[C@H]2O)[C@](C)(OC)C[C@@H](C)C(=O)[C@H](C)[C@H]2N(CCCCn3cnc(-c4cccnc4)c3)C(=O)O[C@]12C [Telithromycin]	-0.133	-0.0921	-0.074	-0.143
CC(=O)NC[C@H]1CN(c2ccc(N3CCOCC3)c(F)c2)C(=O)O1 [Linezolid] + CN(C)C(=O)C(CCN1CCC(O)(c2ccc(Cl)cc2)CC1)(c1ccccc1)c1ccccc1 [Loperamide]	0.116	0.176	-0.0501	0.0436
CC(=O)NC[C@H]1CN(c2ccc(N3CCOCC3)c(F)c2)C(=O)O1 [Linezolid] + CN[C@H](CC(C)C)C(=O)N[C@H]1C(=O)N[C@@H](CC(N)=O)C(=O)N[C@H]2C(=O)N[C@H]3C(=O)N[C@H](C(=O)N[C@H](C(=O)O)c4cc(O)cc(O)c4-c4cc3ccc4O)[C@H](O[C@H]3C[C@](C)(N)[C@@H](O)[C@H](C)O3)c3ccc(c(Cl)c3)Oc3cc2cc(c3O[C@@H]2O[C@H](CO)[C@@H](O)[C@H](O)[C@H]2O[C@H]2C[C@](C)(NCc3ccc(-c4ccc(Cl)cc4)cc3)[C@@H](O)[C@H](C)O2)Oc2ccc(cc2Cl)[C@H]1O [Oritavancin]	-0.0323	0.0845	-0.0463	0.0399
CC(=O)NC[C@H]1CN(c2ccc(N3CCOCC3)c(F)c2)C(=O)O1 [Linezolid] + CO[C@@]12[C@H](COC(N)=O)C3=C(C(=O)C(C)=C(N)C3=O)N1C[C@@H]1N[C@@H]12 [MitomycinC]	-0.068	-0.0668	0.0823	0.0314
CC(=O)NC[C@H]1CN(c2ccc(N3CCOCC3)c(F)c2)C(=O)O1 [Linezolid] + Oc1cc(Cl)ccc1Oc1ccc(Cl)cc1Cl [Triclosan]	-0.0777	-0.0928	0.026	0.0335
